Literature values, collected in patent US20210069213A1, “COMPOSITION AND METHOD OF TREATMENT FOR DRY A.M.D. (AGE RELATED MACULAR DEGENERATION)” (EYE CO PTY LTD, priority 2018, published 2021).

Assays:
[1] = biological target: T1, mineralocorticoid receptor (Homo sapiens, UniProt P08235); details: Table 1; hydrocortisone (cortisol) = 1; cited from earlier work
T1 sequence (P08235 1-984): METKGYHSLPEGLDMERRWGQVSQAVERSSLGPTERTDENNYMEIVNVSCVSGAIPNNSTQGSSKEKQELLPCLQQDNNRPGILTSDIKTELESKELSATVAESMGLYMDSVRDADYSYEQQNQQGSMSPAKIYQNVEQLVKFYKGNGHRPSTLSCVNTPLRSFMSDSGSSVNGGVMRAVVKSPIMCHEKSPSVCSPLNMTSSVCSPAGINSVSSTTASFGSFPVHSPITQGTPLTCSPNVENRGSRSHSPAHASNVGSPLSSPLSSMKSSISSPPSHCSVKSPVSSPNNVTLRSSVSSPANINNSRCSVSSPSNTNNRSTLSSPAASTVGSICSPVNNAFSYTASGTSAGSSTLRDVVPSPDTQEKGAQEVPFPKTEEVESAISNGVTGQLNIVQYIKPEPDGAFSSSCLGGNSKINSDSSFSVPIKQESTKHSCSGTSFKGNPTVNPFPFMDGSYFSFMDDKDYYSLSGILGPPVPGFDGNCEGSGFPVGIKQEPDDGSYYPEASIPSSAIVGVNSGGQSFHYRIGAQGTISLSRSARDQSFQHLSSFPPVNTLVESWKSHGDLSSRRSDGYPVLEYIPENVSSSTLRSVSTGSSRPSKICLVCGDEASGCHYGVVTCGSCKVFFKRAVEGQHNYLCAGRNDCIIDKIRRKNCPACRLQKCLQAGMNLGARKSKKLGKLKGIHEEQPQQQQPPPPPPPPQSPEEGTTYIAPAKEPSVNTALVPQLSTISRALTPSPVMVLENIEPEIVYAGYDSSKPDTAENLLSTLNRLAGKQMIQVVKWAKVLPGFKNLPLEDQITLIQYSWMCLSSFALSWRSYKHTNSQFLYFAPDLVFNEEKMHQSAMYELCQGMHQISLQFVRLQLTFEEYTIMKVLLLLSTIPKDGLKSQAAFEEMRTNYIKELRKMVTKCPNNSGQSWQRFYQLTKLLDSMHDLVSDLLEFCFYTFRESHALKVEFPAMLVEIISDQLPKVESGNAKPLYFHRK

glucocorticoid receptor = biological target: T2, glucocorticoid receptor (Homo sapiens, UniProt P04150); details: cited from earlier work; for GR potency: Table 1, hydrocortisone (cortisol) = 1
T2 sequence (P04150 1-777): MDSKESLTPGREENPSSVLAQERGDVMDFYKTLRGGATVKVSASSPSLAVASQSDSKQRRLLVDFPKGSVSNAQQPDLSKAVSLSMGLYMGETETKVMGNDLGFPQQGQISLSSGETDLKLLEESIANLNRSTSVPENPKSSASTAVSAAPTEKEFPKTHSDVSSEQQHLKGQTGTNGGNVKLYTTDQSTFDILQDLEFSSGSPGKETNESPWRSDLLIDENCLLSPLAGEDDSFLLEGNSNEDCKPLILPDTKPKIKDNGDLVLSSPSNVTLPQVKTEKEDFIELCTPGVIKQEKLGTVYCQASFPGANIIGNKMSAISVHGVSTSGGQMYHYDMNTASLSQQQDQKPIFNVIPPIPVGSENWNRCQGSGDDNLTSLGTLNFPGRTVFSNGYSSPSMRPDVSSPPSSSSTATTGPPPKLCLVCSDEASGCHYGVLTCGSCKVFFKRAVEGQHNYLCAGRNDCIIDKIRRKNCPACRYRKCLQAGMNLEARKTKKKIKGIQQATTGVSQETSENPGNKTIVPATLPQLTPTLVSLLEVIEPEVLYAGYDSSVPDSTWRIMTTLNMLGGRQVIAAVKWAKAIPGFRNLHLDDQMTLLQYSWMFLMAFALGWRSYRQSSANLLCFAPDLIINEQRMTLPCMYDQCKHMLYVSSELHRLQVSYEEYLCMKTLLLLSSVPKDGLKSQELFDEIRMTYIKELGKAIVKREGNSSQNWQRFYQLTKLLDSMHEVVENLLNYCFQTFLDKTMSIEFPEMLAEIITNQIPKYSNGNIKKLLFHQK

[2] = system: New Zealand albino rabbits; details: cited from earlier work

SMILES | MR potency [1] | GR potency (glucocorticoid receptor) | further results
C[C@]12CCC(=O)C=C1CC[C@@H]1[C@@H]2[C@@H](O)C[C@]2(C=O)[C@@H](C(=O)CO)CC[C@@H]12 [Aldosterone] | 200-1000 | 0.3 | 
C[C@H]1C[C@H]2[C@@H]3CCC4=CC(=O)C=C[C@]4(C)[C@@]3(Cl)[C@@H](O)C[C@]2(C)[C@@]1(O)C(=O)CO [Beclometasone] |  |  | GR potency, given as dose equivalence (glucocorticoid receptor; equals 14 mg oral prednisone once/day): 8 puffs 4 times a day;
C[C@]12CCC(=O)C=C1CC[C@@H]1[C@@H]2C(=O)C[C@@]2(C)[C@H]1CC[C@]2(O)C(=O)CO [Cortisone] | 0.8 | 0.8 | 
CC(=O)OCC(=O)[C@H]1CC[C@H]2[C@@H]3CCC4=CC(=O)CC[C@]4(C)[C@H]3CC[C@]12C [Deoxycorticosterone acetate] | 20 | 0 | 
C[C@]12CCC(=O)C=C1CC[C@@H]1[C@@H]2[C@@H](O)C[C@@]2(C)[C@H]1CC[C@]2(O)C(=O)CO [Hydrocortisone] | 1 | 1 | 
C[C@]12C=CC(=O)C=C1CC[C@@H]1[C@@H]2[C@@H](O)C[C@@]2(C)[C@H]1CC[C@]2(O)C(=O)CO [Prednisolone] | 0.8 | 4 | 
C[C@]12C=CC(=O)C=C1CC[C@@H]1[C@@H]2C(=O)C[C@@]2(C)[C@H]1CC[C@]2(O)C(=O)CO [Prednisone] | 0.8 |  | 
C[C@]12C=CC(=O)C=C1CC[C@H]1[C@@H]3C[C@@H](O)[C@](O)(C(=O)CO)[C@@]3(C)C[C@H](O)[C@@]12F [Triamcinolone] | 0 | 5 | 
C[C@]12CCC(=O)C=C1CC[C@H]1[C@@H]3CC[C@](O)(C(=O)CO)[C@@]3(C)C[C@H](O)[C@@]12F [fludrocortisone, 9-alpha fluorohydrocortisone] |  |  | ERG change in the other groups ([2]; intravitreal 2 mg, 1 mg, 400 μg/0.1 ml, two weeks after injection): no significant decrease in ERG; intravitreal (vitreous) haemorrhage ([2]; intravitreal 4 mg/0.1 mL): one eye of this group had a vitreous hemorrhage; ERG change ([2]; intravitreal 4 mg/0.1 ml, two weeks after injection): One eye in the 4 mg/0.1 ml fludrocortisone group exhibited significant decreases in ERG; signs of retinal toxicity on slit-lamp examination, indirect ophthalmoscopy, or light microscopy ([2]; rabbit, in vivo): no signs of retinal toxicity
